Measurements taken from US20100324285A1, “ANTIINFLAMMATORY AGENT COMPRISING 2-AMINOPHENOL OR DERIVATIVE THEREOF AS ACTIVE INGREDIENT” (priority 2006, published 2010).
Read-outs that look alike come from different tables or passages of the source.

Key:
COX-1 = molecular target: T1, COX-1 (Ovis aries, UniProt P05979); assay: COX Inhibitor Screening Assay Kit, COX-1; format: biochemical
T1 construct: purchased Cayman Chemical Company
T1 sequence (P05979 25-600): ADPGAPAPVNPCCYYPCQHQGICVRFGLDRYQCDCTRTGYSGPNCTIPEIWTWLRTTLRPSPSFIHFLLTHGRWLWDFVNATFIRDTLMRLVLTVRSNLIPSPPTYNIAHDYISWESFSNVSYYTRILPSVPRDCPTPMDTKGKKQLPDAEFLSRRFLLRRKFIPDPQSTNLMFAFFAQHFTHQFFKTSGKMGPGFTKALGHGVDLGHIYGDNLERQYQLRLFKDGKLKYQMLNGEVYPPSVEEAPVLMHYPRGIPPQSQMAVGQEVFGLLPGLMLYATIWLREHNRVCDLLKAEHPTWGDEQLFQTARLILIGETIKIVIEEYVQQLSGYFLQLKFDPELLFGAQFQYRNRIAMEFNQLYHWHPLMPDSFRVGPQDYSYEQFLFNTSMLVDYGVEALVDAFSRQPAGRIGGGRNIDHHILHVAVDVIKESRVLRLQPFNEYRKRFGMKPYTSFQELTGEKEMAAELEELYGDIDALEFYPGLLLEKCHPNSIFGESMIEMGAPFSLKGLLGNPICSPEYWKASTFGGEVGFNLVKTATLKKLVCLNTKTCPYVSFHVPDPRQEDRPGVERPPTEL
Description: (§1) Fifty percent inhibitory concentration (IC50) means the concentration of test sample necessary for inhibiting PGE2 synthesis by 50% compared to non-inhibitory control sample. It can be also determined by measuring the amount of PGE2 produced by adding test samples to cells having cyclooxygenase activity. COX-1/COX-2 ratio means the ratio of […], and the higher the ratio is, the more specific to COX-2 the agent is.
(§2) To verify the results of Experiment 2, it was investigated that whether the activity of COXs, essential enzymes for PGE2 synthesis system, can be inhibited. […] An experimental system without the test samples was set as control. The residual activity of COX-1 or COX-2 was determined as relative activity versus control.

[1] = test system: Mouse melanoma cell line B16; assay: Melanin synthesis in B16 cells; format: cell-based; conditions: for Amount of melanin (%): 5 days, per mg protein versus control
Experimental: (§3) As control, a system with no test sample was provided. […] The amount of protein was measured by conventional Bradfordmethod and the amount of melanin per 1 mg of protein was calculated. The amount of melanin (%) was calculated according to Formula 4, and the living cell rate (%) was calculated according to Formula 5.
As control, a system with no test sample was provided. […] The amount of protein was measured by conventional Bradford method and the amount of melanin per 1 mg of protein was calculated. The amount of melanin (%) was calculated according to Formula 4.

[2] = test system: Mouse melanoma cell line B16; assay: Living cell rate of B16 cells; conditions: 5 days, versus control
Experimental: as §3

COX-2 [3] = molecular target: T2, COX-2 (Homo sapiens, UniProt P35354); assay: COX Inhibitor Screening Assay Kit, COX-2; format: biochemical
T2 sequence (P35354 18-604): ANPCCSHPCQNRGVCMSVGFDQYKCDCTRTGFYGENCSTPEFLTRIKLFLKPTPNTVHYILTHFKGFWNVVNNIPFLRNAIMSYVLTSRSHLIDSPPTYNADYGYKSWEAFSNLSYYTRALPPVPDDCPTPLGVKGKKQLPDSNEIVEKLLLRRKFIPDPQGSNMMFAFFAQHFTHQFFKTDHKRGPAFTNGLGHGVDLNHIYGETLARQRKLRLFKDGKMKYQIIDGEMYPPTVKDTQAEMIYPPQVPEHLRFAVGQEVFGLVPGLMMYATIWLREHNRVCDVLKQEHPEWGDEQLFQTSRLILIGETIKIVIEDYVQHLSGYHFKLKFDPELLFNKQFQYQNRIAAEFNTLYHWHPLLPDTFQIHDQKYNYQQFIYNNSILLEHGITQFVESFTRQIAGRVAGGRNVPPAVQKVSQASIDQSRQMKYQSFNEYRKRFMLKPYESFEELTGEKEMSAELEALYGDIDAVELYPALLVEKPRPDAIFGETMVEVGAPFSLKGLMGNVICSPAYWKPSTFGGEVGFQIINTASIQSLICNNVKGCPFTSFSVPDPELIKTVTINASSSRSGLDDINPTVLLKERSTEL
Description: as §1, §2

RAW264.7 cells [4] = assay: PGE2 production by macrophage RAW264.7, PGE2-EIA kit; format: cell-based, mouse; conditions: LPS + IFN-γ, 2 days, relative level versus control
Description: (§4) RAW264.7 cells, a murine macrophage cell strain, were suspended in PRMI1640 medium supplied with 10% (v/v) fetal calf serum (hereinafter abbreviated as “FCS”) to give a cell suspension with a cell concentration of 1×10^6 cells/ml. […] The experimental system without the test samples described above was set as control. […] NO production, PGE2 production and macrophage growth are indicated as relative levels versus controls.

COX-2 [5] = molecular target: T2, COX-2; conditions: nonsteroidal COX inhibitors, comparison values, source not given; cited from earlier work
RAW264.7 cells [6] = assay: Macrophage growth, living cell count; format: cell-based, mouse; conditions: 2 days, relative level versus control
Description: as §4

RAW264.7 cells [7] = assay: NO production by macrophage RAW264.7, Griess method; format: cell-based, mouse; conditions: LPS + IFN-γ, 2 days, relative level versus control
Description: As macrophage cells, RAW264.7 cell strain from mouse or macrophage cells obtained from laboratory animals such as mouse can be used. The amount of produced NO can be measured by conventional Griess method. […] RAW264.7 cells, a murine macrophage cell strain, were suspended in PRMI1640 medium supplied with 10% (v/v) fetal calf serum (hereinafter abbreviated as “FCS”) to give a cell suspension with a cell concentration of 1×10^6 cells/ml. […] The experimental system without the test samples described above was set as control. […] NO production, PGE2 production and macrophage growth are indicated as relative levels versus controls.

[8] = read-out: residual activity of COX-1
[9] = read-out: residual activity of COX-2

## Nc1ccccc1O [2-Aminophenol]
COX-1
  IC50: 28 µM
COX-1; [8]
  remaining activity at 8 µM: 66%
  remaining activity at 16 µM: 73%
  remaining activity at 32 µM: 42%
[1]; 1 μM
  Amount of melanin (%): 62%
[1]; 2 μM
  Amount of melanin (%): 55%
[1]; 4 μM
  Amount of melanin (%): 50%
[1]; in the concentration at which the cell-growth was not inhibited
  inhibiting effect on melanin production higher than that of kojic acid: 1.000 fold
[2]; 1 μM
  Living cell rate (%): 95%
[2]; 2 μM
  Living cell rate (%): 79%
[2]; 4 μM
  Living cell rate (%): 52%
COX-2 [3]
  IC50: 27.7 µM
COX-2 [3]; ratio of IC50 values of Table 2
  COX-1/COX-2 ratio: about 1
COX-2 [3]; [9]
  remaining activity at 8 µM: 72%
  remaining activity at 16 µM: 60%
  remaining activity at 32 µM: 47%

## CC(=O)Oc1ccccc1C(=O)O [AS, aspirin]
RAW264.7 cells [4]; 0.16 μM
  PGE2 production (%): 98%
RAW264.7 cells [4]; 0.31 μM
  PGE2 production (%): 99%
RAW264.7 cells [4]; 0.63 μM
  PGE2 production (%): 79%
RAW264.7 cells [4]; 1.3 μM
  PGE2 production (%): 47%
RAW264.7 cells [4]; 2.5 μM
  PGE2 production (%): 33%
RAW264.7 cells [4]; 5.0 μM
  PGE2 production (%): 8%
RAW264.7 cells [4]; 10 μM
  PGE2 production (%): 3%
COX-2 [5]
  COX-1/COX-2 ratio: 0.24
RAW264.7 cells [6]; 0.16 μM
  Macrophage growth (%): 103%
RAW264.7 cells [6]; 0.31 μM
  Macrophage growth (%): 100%
RAW264.7 cells [6]; 0.63 μM
  Macrophage growth (%): 95%
RAW264.7 cells [6]; 1.3 μM
  Macrophage growth (%): 85%
RAW264.7 cells [6]; 2.5 μM
  Macrophage growth (%): 86%
RAW264.7 cells [6]; 5.0 μM
  Macrophage growth (%): 89%
RAW264.7 cells [6]; 10 μM
  Macrophage growth (%): 89%
RAW264.7 cells [7]; 0.16 μM
  NO production (%): 101%
RAW264.7 cells [7]; 0.31 μM
  NO production (%): 102%
RAW264.7 cells [7]; 0.63 μM
  NO production (%): 102%
RAW264.7 cells [7]; 1.3 μM
  NO production (%): 93%
RAW264.7 cells [7]; 2.5 μM
  NO production (%): 95%
RAW264.7 cells [7]; 5.0 μM
  NO production (%): 90%
RAW264.7 cells [7]; 10 μM
  NO production (%): 86%
